How the values were obtained:
Assay type in all cases: cell-based
SU-DHL10 cells [1] = assay: RT2 Glucocorticoid signaling PCR array, SU-DHL10 (SUDHL10) cell line (Table 4d); details: SUDHL10, 4 days, vs DMSO
Description: (§1) Expression levels of (A). Sestrin; (B). TNF and (C) GILZ normalized to DMSO controls for each cell line with the indicated single agent or combination.

RL cells = assay: RT2 Glucocorticoid signaling PCR array, RL (Table 4e, printed RI) cell line; details: 4 days, Cpd44 1 uM, Pred 10-fold below 4-day IC50, vs DMSO, B2M-normalized
Description: as §1

OCI-Ly19 cells = assay: RT2 Glucocorticoid signaling PCR array, OCI-LY19 (Table 4a, printed OCT) cell line; details: vs DMSO
SMARCB1 protein levels = assay: SMARCB1 (INI1) western blot in lymphoma cells; details: single agent treatment
Description: Glucocorticoid bound GR molecules move to the nucleus and can act as either transcriptional activator or repressor, depending on the cellular environment. […] Accessibility to GR binding sites can further be enhanced by ATP-dependent chromatin remodeling, and the SWI/SNF complex plays a key role in this activity. Not wishing to be bound by a particular theory or a specific mechanism of action, it is conceivable that aberrant chromatin repression, induced by EZH2 mediated hypertrimethylation of H3K27, can block some of the otherwise accessible GR binding sites, interfering with normal GR mediated gene induction or repression.

SU-DHL10 cells [2] = assay: RT2 Glucocorticoid signaling PCR array, SU-DHL10 (SUDHL10) cell line (Table 4d); details: SUDHL10, 4 days, vs DMSO; remark: listed apart in the source

**Q.** Which results are given for `C[C@]12C=CC(=O)C=C1CC[C@@H]1[C@@H]2[C@@H](O)C[C@@]2(C)[C@H]1CC[C@]2(O)C(=O)CO` [Prednisolone, prednisolone]?
**A.** ADARB1 ΔΔCT (SU-DHL10 cells [1]): 2.234; AK2 ΔΔCT (SU-DHL10 cells [1]): −0.345; ARIDS8 ΔΔCT (SU-DHL10 cells [1]): 1.603; ASPH ΔΔCT (SU-DHL10 cells [1]): 0.169; CEBPA ΔΔCT (SU-DHL10 cells [1]): 0.784; DDIT4 ΔΔCT (SU-DHL10 cells [1]): −1.212; H6PD ΔΔCT (SU-DHL10 cells [1]): 0.844; LOX ΔΔCT (SU-DHL10 cells [1]): −0.505; NR3C1 ΔΔCT (SU-DHL10 cells [1]): 0.256; PER2 ΔΔCT (SU-DHL10 cells [1]): −0.204; SPHK1 ΔΔCT (SU-DHL10 cells [1]): −0.279; STAT5B ΔΔCT (SU-DHL10 cells [1]): 0.719; TNF ΔΔCT (SU-DHL10 cells [1]): 0.221; VDR ΔΔCT (SU-DHL10 cells [1]): −0.245; ΔΔCT (RL cells; ATF4 mRNA): 1.364; ΔΔCT (RL cells; CREB3 mRNA): 0.762; ΔΔCT (RL cells; CYB561 mRNA): −1.663; ΔΔCT (RL cells; PIK3R1 mRNA): 0.974; ΔΔCT (RL cells; POU2F1 mRNA): 1.130; ΔΔCT (RL cells; SESN1 mRNA): −4.062; ΔΔCT (RL cells; SLC19A2 mRNA): 0.047; ΔΔCT (RL cells; ZHX3 mRNA): 0.168; ΔΔCT, ADARB1 (OCI-Ly19 cells; gene ADARB1): −0.049; ΔΔCT, AK2 (OCI-Ly19 cells; gene AK2): −0.063; ΔΔCT, ANGPTL4 (OCI-Ly19 cells; gene ANGPTL4): −0.754; ΔΔCT, ARID68 (OCI-Ly19 cells; gene ARID68): −0.079; ΔΔCT, ASPH (OCI-Ly19 cells; gene ASPH): 0.346; ΔΔCT, ATF4 (OCI-Ly19 cells; gene ATF4): 0.456; ΔΔCT, BCL6 (OCI-Ly19 cells; gene BCL6): 0.239; ΔΔCT, CEBPB (OCI-Ly19 cells; gene CEBPB): 0.686; ΔΔCT COL4A2 (OCI-Ly19 cells; gene COL4A2): 1.601; ΔΔCT, CREB3L4 (OCI-Ly19 cells; gene CREB3L4): 0.152; ΔΔCT CTGF (OCI-Ly19 cells; gene CTGF): −1.080; ΔΔCT, DDIT4 (OCI-Ly19 cells; gene DDIT4): −1.173; ΔΔCT, DUSP1 (OCI-Ly19 cells; gene DUSP1): 0.164; ΔΔCT, EHD3 (OCI-Ly19 cells; gene EHD3): −0.773; ΔΔCT, FK8PS (OCI-Ly19 cells; gene FK8PS): −0.873; ΔΔCT, FOSL2 (OCI-Ly19 cells; gene FOSL2): −0.480; ΔΔCT, GDPD1 (OCI-Ly19 cells; gene GDPD1): 1.130; ΔΔCT GLUL (OCI-Ly19 cells; gene GLUL): −0.090; ΔΔCT, H6PD (OCI-Ly19 cells; gene H6PD): −0.483; ΔΔCT, HNRPLL (OCI-Ly19 cells; gene HNRPLL): −0.156; ΔΔCT, KLF9 (OCI-Ly19 cells; gene KLF9): −1.571; ΔΔCT, KLF13 (OCI-Ly19 cells; gene KLF13): −0.075; ΔΔCT, LOX (OCI-Ly19 cells; gene LOX): −1.179; ΔΔCT MERTK (OCI-Ly19 cells; gene MERTK): −0.277; ΔΔCT MTZA (OCI-Ly19 cells; gene MTZA): −0.169; ΔΔCT, NFKBIA (OCI-Ly19 cells; gene NFKBIA): 0.043; ΔΔCT, NR3C1 (OCI-Ly19 cells; gene NR3C1): −0.286; ΔΔCT PDCC7 (OCI-Ly19 cells; gene PDCC7): 4.571; ΔΔCT PDGFRB (OCI-Ly19 cells; gene PDGFRB): −2.242; ΔΔCT, PDP1 (OCI-Ly19 cells; gene PDP1): −0.422; ΔΔCT, PIK3R1 (OCI-Ly19 cells; gene PIK3R1): −0.119; ΔΔCT, PLEKHF1 (OCI-Ly19 cells; gene PLEKHF1): 0.139; ΔΔCT, POU2F1 (OCI-Ly19 cells; gene POU2F1): 0.048; ΔΔCT, POU2F2 (OCI-Ly19 cells; gene POU2F2): −0.574; ΔΔCT, RASA3 (OCI-Ly19 cells; gene RASA3): 0.009; ΔΔCT, RHOB (OCI-Ly19 cells; gene RHOB): −1.763; ΔΔCT, SESN1 (OCI-Ly19 cells; gene SESN1): 0.041; ΔΔCT, SGK1 (OCI-Ly19 cells; gene SGK1): −1.154; ΔΔCT, SLC10A6 (OCI-Ly19 cells; gene SLC10A6): −0.369; ΔΔCT, SLC19A2 (OCI-Ly19 cells; gene SLC19A2): 0.410; ΔΔCT, SLC22A5 (OCI-Ly19 cells; gene SLC22A5): 0.236; ΔΔCT, SNTA1 (OCI-Ly19 cells; gene SNTA1): 0.119; ΔΔCT, SPHK1 (OCI-Ly19 cells; gene SPHK1): 0.022; ΔΔCT, STAT5A (OCI-Ly19 cells; gene STAT5A): −0.064; ΔΔCT, STAT5B (OCI-Ly19 cells; gene STAT5B): 0.330; ΔΔCT, TNFAIP3 (OCI-Ly19 cells; gene TNFAIP3): 0.250; ΔΔCT, TSC22D3 (OCI-Ly19 cells; gene TSC22D3): −1.695; ΔΔCT, USP2 (OCI-Ly19 cells; gene USP2): −0.585; ΔΔCT, USPS4 (OCI-Ly19 cells; gene USPS4): 0.286; ΔΔCT, VDR (OCI-Ly19 cells; gene VDR): −0.730; ΔΔCT, ZHX3 (OCI-Ly19 cells; gene ZHX3): −0.730; ΔΔCT, ZNF281 (OCI-Ly19 cells; gene ZNF281): 0.871; SMARCB1 protein levels (SMARCB1 protein levels): no effect; AFF1 ΔΔCT (SU-DHL10 cells [2]): −0.106; AMPD3 ΔΔCT (SU-DHL10 cells [2]): −0.327; ANGPTL4 ΔΔCT (SU-DHL10 cells [2]): −0.105; ANXA4 ΔΔCT (SU-DHL10 cells [2]): −0.001; ATF4 ΔΔCT (SU-DHL10 cells [2]): 1.570; BCL6 ΔΔCT (SU-DHL10 cells [2]): 1.067; CEBPB ΔΔCT (SU-DHL10 cells [2]): 2.427; CREB1 ΔΔCT (SU-DHL10 cells [2]): 0.028; CREB3L4 ΔΔCT (SU-DHL10 cells [2]): 1.120; CREB3 ΔΔCT (SU-DHL10 cells [2]): −0.098; CYB561 ΔΔCT (SU-DHL10 cells [2]): 0.164; DUSP1 ΔΔCT (SU-DHL10 cells [2]): −0.719; EHD3 ΔΔCT (SU-DHL10 cells [2]): −0.272; FK8PS ΔΔCT (SU-DHL10 cells [2]): −1.599; FOSL2 ΔΔCT (SU-DHL10 cells [2]): −1.511; GDPD1 ΔΔCT (SU-DHL10 cells [2]): −0.938; GOT1 ΔΔCT (SU-DHL10 cells [2]): 0.781; HNRPLL ΔΔCT (SU-DHL10 cells [2]): 0.492; KLF9 ΔΔCT (SU-DHL10 cells [2]): −1.904; KLF13 ΔΔCT (SU-DHL10 cells [2]): −2.191; MT2A ΔΔCT (SU-DHL10 cells [2]): 1.837; NFKBIA ΔΔCT (SU-DHL10 cells [2]): 0.069; PDCD7 ΔΔCT (SU-DHL10 cells [2]): 0.428; PDP1 ΔΔCT (SU-DHL10 cells [2]): 0.512; PER1 ΔΔCT (SU-DHL10 cells [2]): −0.675; PIK3R1 ΔΔCT (SU-DHL10 cells [2]): −0.040; PLEKHF1 ΔΔCT (SU-DHL10 cells [2]): −0.326; POU2F1 ΔΔCT (SU-DHL10 cells [2]): −0.060; POU2F2 ΔΔCT (SU-DHL10 cells [2]): −2.104; RA5A3 ΔΔCT (SU-DHL10 cells [2]): 0.050; RGS2 ΔΔCT (SU-DHL10 cells [2]): 1.368; RHOB ΔΔCT (SU-DHL10 cells [2]): 0.157; SESN1 ΔΔCT (SU-DHL10 cells [2]): −3.413; SGK1 ΔΔCT (SU-DHL10 cells [2]): 0.975; SLC10A6 ΔΔCT (SU-DHL10 cells [2]): −1.545; SLC19A2 ΔΔCT (SU-DHL10 cells [2]): 1.693; SLC22A5 ΔΔCT (SU-DHL10 cells [2]): 1.923; SNTA1 ΔΔCT (SU-DHL10 cells [2]): −0.066; SPSB1 ΔΔCT (SU-DHL10 cells [2]): −0.629; STAT5A ΔΔCT (SU-DHL10 cells [2]): 0.381; TBL1XR1 ΔΔCT (SU-DHL10 cells [2]): 0.105; TNFAIP3 ΔΔCT (SU-DHL10 cells [2]): 0.950; TSC22D3 ΔΔCT (SU-DHL10 cells [2]): −1.509; USP2 ΔΔCT (SU-DHL10 cells [2]): −0.292; USPS4 ΔΔCT (SU-DHL10 cells [2]): 0.041; VLDLR ΔΔCT (SU-DHL10 cells [2]): 4.597; ZFP36 ΔΔCT (SU-DHL10 cells [2]): −0.420; ZHX3 ΔΔCT (SU-DHL10 cells [2]): 0.027; ZNF281 ΔΔCT (SU-DHL10 cells [2]): −0.465

From patent US10456407B2, “Combination therapy for treating cancer” (Epizyme, Inc., priority 2015, dated 2019)
